# Assay results: patent US20220324965A1, “COMBINATION THERAPY INVOLVING ANTIBODIES AGAINST CLAUDIN 18.2 AND IMMUNE CHECKPOINT INHIBITORS FOR TREATMENT OF CANCER” (Astellas Pharma Inc., priority 2019, published 2022)
# Assays:
# Type in all cases: in vivo
# [1] = tested on: CLS-103 LVT-murinCLDN18.2 syngeneic tumors; test: Long-term efficacy of IMAB362 plus anti-mPD-1 antibody in subcutaneous syngeneic gastric carcinoma model, up to day 28 (Example 2); conditions: IMAB362 800 μg/mouse, anti-mPD-1 antibody 100 μg/mouse, intraperitoneal twice per week
# Description: (§1) In order to determine whether a combination of an anti-CLDN18.2 antibody and an immune checkpoint inhibitor improves anti-tumor activity over the single agents alone in vivo in long-term period, anti-tumor activity of IMAB362 in combination with an anti-mPD-1 antibody was examined up to day 28 in a subcutaneously transplanted syngeneic gastric carcinoma model in immunocompetent outbred Crl:NMRI(Han) mice using CLS-103 cells with lentiviral transduction of murine CLDN18.2 (CLS-103 LVT-murinCLDN18.2). Rituximab was used as an isotype control of IMAB362.
# (§2) • Anti-CLDN18.2 antibody: IMAB362 (Astellas Pharma Inc.) • control antibody: Rituximab BS Intravenous Infusion [KHK] […]
# Lentivirally transduced mouse CLDN18.2 expressing tumor cells (CLS-103 LVT-murinCLDN18.2) were engrafted subcutaneously into the right flank of female Crl:NMRI(Han) mice (11-week-old) at 2×10^6 cells/mouse. Mice were randomized based on tumor volume measured 2 days after engraftment into 4 groups (n=12 per group). […] Tumors were measured twice per week. […] Tumor volume was determined by length×width×width×0.5. Mean tumor volume was calculated up to day 21 since 1 of 12 mice in the Rituximab/isotype treated group, as well as in the anti-mPD-1 antibody single agent group, was sacrificed due to tumor size being over 2000 mm^3. […] Complete regression (CR) was determined up to day 28 as the tumor volume of individual regressed to zero. […]
# [2] = tested on: CLS-103 LVT-murinCLDN18.2 syngeneic tumors; test: Efficacy of IMAB362 plus anti-mCTLA-4 antibody in subcutaneous syngeneic gastric carcinoma model, endpoint day 14 (Example 3); conditions: n=12 per group, IMAB362 800 μg/mouse, anti-mCTLA-4 antibody 300 μg/mouse, intraperitoneal twice per week, vs Rituximab/isotype control group
# Description: as §1, with “vivo,” for “vivo in long-term period,”, “anti-mCTLA-4” for “anti-mPD-1”, “examined” for “examined up to day 28”
# as §2
# (§3) Lentivirally transduced mouse CLDN18.2 expressing tumor cells (CLS-103 LVT-murinCLDN18.2) were engrafted subcutaneously into the right flank of female Crl:NMRI(Han) mice (11-week-old) at 2×10^6 cells/mouse. Mice were randomized based on tumor volume measured 2 days after engraftment into 4 groups (n=12 per group). […] Tumors were measured twice per week. […] Tumor volume was determined by length×width×width×0.5. Tumor growth inhibition (TGI [%]) or tumor regression rate (TRR [%]) of each group was calculated using the equations described below. […]
# [3] = tested on: CLS-103 LVT-murinCLDN18.2 syngeneic tumors; test: Efficacy of IMAB362 plus anti-mPD-1 antibody in subcutaneous syngeneic gastric carcinoma model, endpoint day 14 (Example 1); conditions: female Crl:NMRI(Han) mice, n=12 per group, IMAB362 800 μg/mouse, anti-mPD-1 antibody 100 μg/mouse, intraperitoneal twice per week, vs Rituximab/isotype control group
# Description: as §1, with “provides improved” for “improves”, “vivo,” for “vivo in long-term period,”, “examined” for “examined up to day 28”, “[…]).” for “LVT-murinCLDN18.2).”
# as §2
# as §3, with “(10-week-old)” for “(11-week-old)”, “(TGI[%])” for “(TGI [%]) or tumor regression rate (TRR [%])”, “equation” for “equations”
# [4] = tested on: CLS-103 LVT-murinCLDN18.2 syngeneic tumors; test: Efficacy of IMAB362 plus anti-mPD-L1 antibody in subcutaneous syngeneic gastric carcinoma model, endpoint day 14 (Example 4); conditions: n=12 per group, IMAB362 800 μg/mouse, anti-mPD-L1 antibody 300 μg/mouse, intraperitoneal twice per week, vs Rituximab/isotype control group
# Description: as §1, with “vivo,” for “vivo in long-term period,”, “anti-mPD-L1” for “anti-mPD-1”, “examined” for “examined up to day 28”
# as §2, §3
substance,measurement,setting,value
"IMAB362: chimeric IgG1 antibody directed against CLDN18.2; heavy chain SEQ ID NO: 51, light chain SEQ ID NO: 24",Tumor growth inhibition (TGI),"[1]; day 21, n=12 per group, vs Rituximab/isotype control group",40%
same,number of mice with complete regression (CR) in the group of 12 mice,"[1]; day 28, CR = tumor volume regressed to zero",2
same,Tumor growth inhibition (TGI),[2],72%
same,Tumor growth inhibition (TGI),[3],50%
same,Tumor growth inhibition (TGI),[4],60%
